Data as given in PubChem BioAssay (NCI).
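The compound was tested at five concentrations on cells cultured in 96-well plates, with a 48-hour exposure period. TGI marks complete inhibition of growth.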

Legend:
Test in all cases: NCI tumour cell line growth inhibition, 48 h
KM12 colon = tested on: KM12 colon
HOP-62 NSCLC = tested on: HOP-62 NSCLC
HS 578T breast = tested on: HS 578T breast
NCI-H522 lung = tested on: NCI-H522 lung
DU-145 prostate = tested on: DU-145 prostate
UO-31 renal = tested on: UO-31 renal
NCI-H460 lung = tested on: NCI-H460 lung
HCT-116 colon = tested on: HCT-116 colon
EKVX NSCLC = tested on: EKVX NSCLC
UACC-62 melanoma = tested on: UACC-62 melanoma
MDA-MB-435 = tested on: MDA-MB-435
TK-10 renal = tested on: TK-10 renal
BT-549 breast = tested on: BT-549 breast
SNB-75 CNS = tested on: SNB-75 CNS
HCC-2998 colon = tested on: HCC-2998 colon
SK-MEL-5 melanoma = tested on: SK-MEL-5 melanoma
A549 NSCLC = tested on: A549 NSCLC
MDA-N = tested on: MDA-N
UACC-257 melanoma = tested on: UACC-257 melanoma
ACHN renal = tested on: ACHN renal
CAKI-1 renal = tested on: CAKI-1 renal
SF-268 CNS = tested on: SF-268 CNS
OVCAR-4 ovarian = tested on: OVCAR-4 ovarian
HT29 colon = tested on: HT29 colon
SW-620 colon = tested on: SW-620 colon
RXF 393 renal = tested on: RXF 393 renal
HCT-15 colon = tested on: HCT-15 colon
CCRF-CEM leukemia = tested on: CCRF-CEM leukemia
HOP-92 NSCLC = tested on: HOP-92 NSCLC
SN12C renal = tested on: SN12C renal
RPMI-8226 leukemia = tested on: RPMI-8226 leukemia
OVCAR-3 ovarian = tested on: OVCAR-3 ovarian
M14 melanoma = tested on: M14 melanoma
NCI/ADR-RES ovarian = tested on: NCI/ADR-RES ovarian
OVCAR-5 ovarian = tested on: OVCAR-5 ovarian
SNB-19 CNS = tested on: SNB-19 CNS
A498 renal = tested on: A498 renal
MOLT-4 leukemia = tested on: MOLT-4 leukemia
NCI-H226 lung = tested on: NCI-H226 lung
786-0 renal = tested on: 786-0 renal
SF-295 CNS = tested on: SF-295 CNS
LOX IMVI melanoma = tested on: LOX IMVI melanoma
PC-3 prostate = tested on: PC-3 prostate
U251 CNS = tested on: U251 CNS
SF-539 CNS = tested on: SF-539 CNS
OVCAR-8 ovarian = tested on: OVCAR-8 ovarian
NCI-H23 lung = tested on: NCI-H23 lung
SK-OV-3 ovarian = tested on: SK-OV-3 ovarian
SK-MEL-2 melanoma = tested on: SK-MEL-2 melanoma
K-562 leukemia = tested on: K-562 leukemia
T-47D breast = tested on: T-47D breast
MDA-MB-231 breast = tested on: MDA-MB-231 breast
MCF7 breast = tested on: MCF7 breast
MALME-3M melanoma = tested on: MALME-3M melanoma
COLO 205 colon = tested on: COLO 205 colon
IGROV1 ovarian = tested on: IGROV1 ovarian
HL-60(TB) leukemia = tested on: HL-60(TB) leukemia
SK-MEL-28 melanoma = tested on: SK-MEL-28 melanoma

COc1cc(Nc2cc(Cl)cc(Cl)c2)nc(N)n1 gave a TGI (KM12 colon) of 37 µM, a TGI (HOP-62 NSCLC) of 36.6 µM and a TGI (HS 578T breast) of 57 µM. The TGI (NCI-H522 lung) was 35.9 µM, the TGI (DU-145 prostate) was 48.6 µM and the TGI (UO-31 renal) was 31.2 µM. For the same molecule, the TGI (NCI-H460 lung) was 34 µM, the TGI (HCT-116 colon) was 31 µM and the TGI (EKVX NSCLC) was 69 µM. It also gave a TGI (UACC-62 melanoma) of 33.4 µM, a TGI (MDA-MB-435) of 75.8 µM and a TGI (TK-10 renal) of 53.9 µM. For the same molecule, the TGI (BT-549 breast) was 40.8 µM, the TGI (SNB-75 CNS) was 43.6 µM and the TGI (HCC-2998 colon) was 34 µM. The TGI (SK-MEL-5 melanoma) was 29.7 µM, the TGI (A549 NSCLC) was 48.5 µM and the TGI (MDA-N) was 62.3 µM. The TGI (UACC-257 melanoma) was 38.8 µM, the TGI (ACHN renal) was 37.4 µM and the TGI (CAKI-1 renal) was 42.8 µM. For the same molecule, the TGI (SF-268 CNS) was 41.3 µM, the TGI (OVCAR-4 ovarian) was 54 µM and the TGI (HT29 colon) was 33.2 µM. It also gave a TGI (SW-620 colon) of 59.8 µM, a TGI (RXF 393 renal) of 28.4 µM and a TGI (HCT-15 colon) of 36.5 µM. The TGI (CCRF-CEM leukemia) was 43.3 µM, the TGI (HOP-92 NSCLC) was 32.1 µM and the TGI (SN12C renal) was 40.1 µM. It also gave a TGI (RPMI-8226 leukemia) of 56.5 µM, a TGI (OVCAR-3 ovarian) of 41.1 µM and a TGI (M14 melanoma) of 42.1 µM. For the same molecule, the TGI (NCI/ADR-RES ovarian) was 45.4 µM, the TGI (OVCAR-5 ovarian) was > 100 µM and the TGI (SNB-19 CNS) was 64.8 µM. For the same molecule, the TGI (A498 renal) was 39.9 µM, the TGI (MOLT-4 leukemia) was 51 µM and the TGI (NCI-H226 lung) was 42.5 µM. The TGI (786-0 renal) was 31.8 µM, the TGI (SF-295 CNS) was 38.3 µM and the TGI (LOX IMVI melanoma) was 32.2 µM. For the same molecule, the TGI (PC-3 prostate) was 59.6 µM, the TGI (U251 CNS) was 41.2 µM and the TGI (SF-539 CNS) was 33 µM. For the same molecule, the TGI (OVCAR-8 ovarian) was 39.6 µM, the TGI (NCI-H23 lung) was 49.2 µM and the TGI (SK-OV-3 ovarian) was 64.5 µM. The TGI (SK-MEL-2 melanoma) was 32.1 µM, the TGI (K-562 leukemia) was > 100 µM and the TGI (T-47D breast) was 92.5 µM. For the same molecule, the TGI (MDA-MB-231 breast) was 43.8 µM, the TGI (MCF7 breast) was 91.4 µM and the TGI (MALME-3M melanoma) was 40.4 µM. It also gave a TGI (COLO 205 colon) of 44.2 µM and a TGI (IGROV1 ovarian) of 44.2 µM.
CC(C)(C)n1c(=O)n2c(-c3ccccc3)c(-c3ccccc3)n2c1=O was tested, and the TGI (KM12 colon) was > 100 µM, the TGI (HS 578T breast) was > 100 µM and the TGI (NCI-H522 lung) was 56.5 µM. The TGI (DU-145 prostate) was > 100 µM, the TGI (UO-31 renal) was > 100 µM and the TGI (NCI-H460 lung) was > 100 µM. The TGI (HCT-116 colon) was > 100 µM, the TGI (EKVX NSCLC) was > 100 µM and the TGI (UACC-62 melanoma) was > 100 µM. For the same molecule, the TGI (MDA-MB-435) was > 100 µM, the TGI (TK-10 renal) was > 100 µM and the TGI (BT-549 breast) was > 100 µM. For the same molecule, the TGI (SNB-75 CNS) was > 100 µM, the TGI (HCC-2998 colon) was > 100 µM and the TGI (SK-MEL-5 melanoma) was > 100 µM. For the same molecule, the TGI (A549 NSCLC) was > 100 µM, the TGI (MDA-N) was > 100 µM and the TGI (UACC-257 melanoma) was > 100 µM. For the same molecule, the TGI (ACHN renal) was > 100 µM, the TGI (CAKI-1 renal) was > 100 µM and the TGI (SF-268 CNS) was > 100 µM. The TGI (OVCAR-4 ovarian) was > 100 µM, the TGI (HT29 colon) was > 100 µM and the TGI (SW-620 colon) was > 100 µM. The TGI (RXF 393 renal) was > 100 µM, the TGI (HCT-15 colon) was > 100 µM and the TGI (HOP-92 NSCLC) was > 100 µM. For the same molecule, the TGI (SN12C renal) was > 100 µM, the TGI (RPMI-8226 leukemia) was 61.1 µM and the TGI (OVCAR-3 ovarian) was > 100 µM. For the same molecule, the TGI (M14 melanoma) was > 100 µM, the TGI (NCI/ADR-RES ovarian) was > 100 µM and the TGI (OVCAR-5 ovarian) was > 100 µM. The TGI (SNB-19 CNS) was > 100 µM, the TGI (A498 renal) was > 100 µM and the TGI (HL-60(TB) leukemia) was > 100 µM. For the same molecule, the TGI (NCI-H226 lung) was > 100 µM, the TGI (786-0 renal) was > 100 µM and the TGI (SF-295 CNS) was > 100 µM. The TGI (LOX IMVI melanoma) was > 100 µM, the TGI (PC-3 prostate) was > 100 µM and the TGI (U251 CNS) was > 100 µM. For the same molecule, the TGI (SF-539 CNS) was > 100 µM, the TGI (OVCAR-8 ovarian) was > 100 µM and the TGI (SK-MEL-28 melanoma) was > 100 µM. The TGI (NCI-H23 lung) was > 100 µM, the TGI (SK-OV-3 ovarian) was > 100 µM and the TGI (SK-MEL-2 melanoma) was 85.3 µM. The TGI (K-562 leukemia) was > 100 µM, the TGI (T-47D breast) was > 100 µM and the TGI (MDA-MB-231 breast) was > 100 µM. The TGI (MCF7 breast) was > 100 µM, the TGI (MALME-3M melanoma) was > 100 µM and the TGI (COLO 205 colon) was > 100 µM. For the same molecule, the TGI (IGROV1 ovarian) was > 100 µM.
